Measurements taken from ChEMBL document CHEMBL1136981, “Carbamates as potent calcitonin gene-related peptide antagonists with improved solution stability” (Bioorg Med Chem Lett, 2009).

Columns and labels:
[1] = target: Calcitonin gene-related peptide type 1 receptor (Homo sapiens, UniProt Q16602); experiment: Binding affinity to human CGRP receptor
[2] = Oxidative stability assessed as compound remaining in water at 0.15 mg/mL at pH 4 after 48 hrs in presence of free radical generator AAPH; assay type: physicochemical; conditions: read-out: Activity
[3] = Hydrolytic stability assessed as compound remaining in water at 0.15 mg/mL at pH 4 after 4 weeks; assay type: physicochemical; conditions: read-out: Activity
[4] = Solubility at pH 7; assay type: physicochemical; conditions: buffer
[5] = Hydrolytic stability assessed as formation of 8-fluoro-3-(piperidin-4-yl)-3,4-dihydroquinazolin-2(1H)-one in 0.05 M buffer at pH 5 after 12 weeks; assay type: physicochemical; design: scale not given: the % may be the effect or the level left; conditions: pH 5, 2016 h
[6] = Hydrolytic stability assessed as formation of (R)-2-(4-(8-fluoro-2-oxo-1,2-dihydroquinazolin-3(4H)-yl)piperidine-1-carboxamido)-3-(7-methyl-1H-indazol-5-yl)propanoic acid in 0.05 M buffer at pH 5 after 12 weeks; assay type: physicochemical; design: scale not given: the % may be the effect or the level left; conditions: pH 5, 2016 h
[7] = Oxidative stability assessed as formation of N-((R)-1-(1,4'-bipiperidin-1'-yl)-3-(7-methyl-1H-indazol-5-yl)-1-oxopropan-2-yl)-4-(8-fluoro-4-hydroxy-2-oxo-1,2-dihydroquinazolin-3(4H)-yl)piperidine-1-carboxamide in 0.05 M buffer at pH 5 after 12 weeks; assay type: physicochemical; conditions: pH 5, 2016 h

Chain of Calcitonin gene-related peptide type 1 receptor (Q16602 whole entry): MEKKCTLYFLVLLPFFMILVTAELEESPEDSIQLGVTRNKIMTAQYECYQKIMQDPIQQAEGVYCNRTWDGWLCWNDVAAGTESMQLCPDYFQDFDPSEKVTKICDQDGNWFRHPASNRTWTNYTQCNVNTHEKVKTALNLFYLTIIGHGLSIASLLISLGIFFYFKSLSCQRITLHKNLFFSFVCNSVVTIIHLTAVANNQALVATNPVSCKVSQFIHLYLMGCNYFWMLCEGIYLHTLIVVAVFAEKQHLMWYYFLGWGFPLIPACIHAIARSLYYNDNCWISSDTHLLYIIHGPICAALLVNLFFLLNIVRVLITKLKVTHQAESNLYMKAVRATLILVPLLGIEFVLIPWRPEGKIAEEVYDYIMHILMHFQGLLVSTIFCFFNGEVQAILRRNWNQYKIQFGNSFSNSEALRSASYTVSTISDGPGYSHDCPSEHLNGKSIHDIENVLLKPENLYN

IC50 [1] [nM] | Compound | further results
0.063 | Cc1cc(C[C@@H](OC(=O)N2CCC(c3cc4ccccc4[nH]c3=O)CC2)C(=O)N2CCN(c3ccncc3)CC2)cc2cn[nH]c12 | –
0.044 | Cc1cc(C[C@@H](OC(=O)N2CCC(c3cc4ccccc4[nH]c3=O)CC2)C(=O)N2CCC3(CCN(C)CC3)CC2)cc2cn[nH]c12 | –
1.8 | Cc1cc(C[C@@H](OC(=O)N2CCC(c3cc4ccccc4[nH]c3=O)CC2)C(=O)N2CCCCC2)cc2cn[nH]c12 | –
0.02 | Cc1cc(C[C@@H](OC(=O)N2CCC(c3cc4ccccc4[nH]c3=O)CC2)C(=O)N2CCN(C3CCCCC3)CC2)cc2cn[nH]c12 | –
0.022 | Cc1cc(C[C@@H](OC(=O)N2CCC(N3Cc4ccc(F)cc4NC3=O)CC2)C(=O)N2CCC(N3CCCCC3)CC2)cc2cn[nH]c12 | –
0.011 | Cc1cc(C[C@@H](OC(=O)N2CCC(N3Cc4cccc(F)c4NC3=O)CC2)C(=O)N2CCC(N3CCCCC3)CC2)cc2cn[nH]c12 | –
0.01 | Cc1cc(C[C@@H](OC(=O)N2CCC(N3Cc4ccccc4NC3=O)CC2)C(=O)N2CCC(N3CCCCC3)CC2)cc2cn[nH]c12 | –
0.053 | Cc1cc(C[C@@H](OC(=O)N2CCC(c3cc4ccccc4[nH]c3=O)CC2)C(=O)N2CCC(N3CC=CCC3)CC2)cc2cn[nH]c12 | –
0.18 | Cc1cc(C[C@@H](OC(=O)N2CCC(c3cc4ccccc4cn3)CC2)C(=O)N2CCC(N3CCCCC3)CC2)cc2cn[nH]c12 | –
0.017 | Cc1cc(C[C@@H](OC(=O)N2CCC(c3cc4ccccc4[nH]c3=O)CC2)C(=O)N2CCC(N3CCCCC3)CC2)cc2cn[nH]c12 | remaining at 48 h, 0.15 mg/mL [2]: 97%; remaining at 672 h, 0.15 mg/mL [3]: 99%; solubility [4]: > 50 mg/mL
– | Cc1cc(C[C@@H](NC(=O)N2CCC(N3Cc4cccc(F)c4NC3=O)CC2)C(=O)N2CCC(N3CCCCC3)CC2)cc2cn[nH]c12 | Activity [5]: 0.4%; Activity [6]: 0.2%; remaining at 48 h, 0.15 mg/mL [2]: 72%; remaining at 672 h, 0.15 mg/mL [3]: 56%; Activity [7]: 2%
0.057 | Cc1cc(C[C@@H](OC(=O)N2CCC(c3cc4cccc(F)c4[nH]c3=O)CC2)C(=O)N2CCC(N3CCCCC3)CC2)cc2cn[nH]c12 | –
0.13 | Cc1cc(C[C@@H](OC(=O)N2CCC(c3cc4ccccc4[nH]c3=O)CC2)C(=O)N2CCN(c3ccc(F)cc3)CC2)cc2cn[nH]c12 | –
0.068 | Cc1cc(C[C@@H](OC(=O)N2CCC(n3cc(-c4ccccc4)[nH]c3=O)CC2)C(=O)N2CCC(N3CCCCC3)CC2)cc2cn[nH]c12 | –
